Patent US8742106B2 (Novartis AG, priority 2009, dated 2014)

How the values were obtained:
human orexin 2 receptors [1] = molecular target: T1, human orexin 2 receptors (Homo sapiens (Human), UniProt O43614); experiment: Calcium Accumulation in Cells (FLIPR), antagonism of orexin A; format: cell-based; conditions: antagonism of orexin A, Cheng-Prusoff corrected; read-out: FLIPR hOx2R Ki
In short: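 Antagonism was measured as block of orexin A-evoked Ca²⁺ fluorescence (FLIPR), with orexin A added one hour after test compound (usually 10^−9–10^−5 M), which was first read alone for agonist activity. Human orexin 2 receptor cells were dye-loaded with 2 μM Fluo4-AM and 0.1 mM probenecid for 1 h.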

human orexin 1 receptors [2] = molecular target: T2, human orexin 1 receptors (Homo sapiens (Human), UniProt O43613); experiment: as above; format: cell-based; conditions: antagonism of orexin A, Cheng-Prusoff corrected; read-out: FLIPR hOx1R Ki
human orexin 1 receptors [3] = molecular target: T2, human orexin 1 receptors; experiment: Radioligand Binding Assay I ([125I]orexin A competition, cell membranes); conditions: read-out: binding I hOx1R Kd
Experimental: (§1) Radioligand Binding Assay I
(§2) For crude cell membrane preparations, cells (CHO, Chinese hamster ovary or HEK, human embryonic kidney) expressing human orexin 1 or human orexin 2 receptors, were washed with HEPES (10 mM, pH 7.5), scraped off the culture plates with the same buffer, and centrifuged at 4° C. for 5 min at 2500×g. The cell pellet was either stored at −80° C. or used directly. Before the experiments, cell membranes were re-suspended in binding assay buffer (10 mM HEPES, 0.5% (w/v) bovine serum albumin, pH 7.5) by homogenisation with a Polytron homogeniser at 50 Hz for 20 s. Cell membranes were also used as made available by commercial providers.
(§3) In initial saturation experiments (to calculate Bmax), cell homogenates (150 μl) were incubated with 25-300 pM of the radioligand ([^125I]orexin A, 50 μl), 8 concentrations in triplicates in the presence or absence Orexin A (1 μM, 50 μl) to define non specific binding. Bound radioactivity was measured, and data were analysed with the program XLFIT or Graphpad Prism. Protein concentration was determined according to the Bradford/BioRad Protein Assay Kit.
(§4) In competition experiments, cell homogenates (150 μl) were incubated in assay buffer (10 mM HEPES, pH 7.5, 0.5% (w/v) bovine serum albumin, 5 mM MgCl2, 1 mM CaCl2, and tween 0.05%) for 1 h at room temperature with about 100 pM of the radioligand ([^125I]orexin A, 2100 Ci/mmole, 50 μl), and with various concentrations of compounds of the invention (50 μl) in triplicates; non-specific binding was determined in the presence of Orexin A (1 μM). Reactions were terminated by vacuum filtration, 3 washes of ice cold wash buffer (Tris-HCl pH 7.4/10 mM, with NaCl 154 mM).

human orexin 2 receptors [4] = molecular target: T1, human orexin 2 receptors; experiment: as above; conditions: read-out: binding I hOx2R Kd
Experimental: as §1, §2, §3, §4

human orexin 1 receptors [5] = molecular target: T2, human orexin 1 receptors; experiment: Radioligand Binding Assay II ([3H]-SB649868 competition, cell membranes); conditions: read-out: binding II hOx1R Kd
In short: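 Membranes from CHO or HEK cells expressing human orexin 1 or orexin 2 receptors incubated 1 h at room temperature with about 1 nM [3H]-SB649868 and compound (triplicates) in HEPES pH 7.5 buffer with BSA, MgCl2, CaCl2, tween. Nonspecific binding defined with 10 μM almorexant; filtration read-out, Kd reported.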

human orexin 2 receptors [6] = molecular target: T1, human orexin 2 receptors; experiment: as above; conditions: read-out: binding II hOx2R Kd
In short: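 Competition binding used membranes from CHO or HEK cells expressing human orexin 2 receptor, incubated 1 h at room temperature with ~1 nM [3H]-SB649868 in 10 mM HEPES pH 7.5, 0.5% BSA, 5 mM MgCl2, 1 mM CaCl2, 0.05% tween. Nonspecific binding was defined with 10 μM almorexant, and bound activity was measured after filtration.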

T1 sequence (O43614 whole entry): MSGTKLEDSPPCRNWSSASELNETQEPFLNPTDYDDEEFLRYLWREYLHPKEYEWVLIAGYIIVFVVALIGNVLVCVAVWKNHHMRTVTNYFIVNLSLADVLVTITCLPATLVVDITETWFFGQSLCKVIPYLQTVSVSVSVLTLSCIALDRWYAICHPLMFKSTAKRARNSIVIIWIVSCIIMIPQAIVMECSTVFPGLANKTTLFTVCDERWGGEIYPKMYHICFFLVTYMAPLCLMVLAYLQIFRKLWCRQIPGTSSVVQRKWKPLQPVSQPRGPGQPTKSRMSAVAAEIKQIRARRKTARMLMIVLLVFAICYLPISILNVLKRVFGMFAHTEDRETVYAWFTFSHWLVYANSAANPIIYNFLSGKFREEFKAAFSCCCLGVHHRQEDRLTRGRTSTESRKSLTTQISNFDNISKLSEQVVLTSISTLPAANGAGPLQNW
T2 sequence (O43613 whole entry): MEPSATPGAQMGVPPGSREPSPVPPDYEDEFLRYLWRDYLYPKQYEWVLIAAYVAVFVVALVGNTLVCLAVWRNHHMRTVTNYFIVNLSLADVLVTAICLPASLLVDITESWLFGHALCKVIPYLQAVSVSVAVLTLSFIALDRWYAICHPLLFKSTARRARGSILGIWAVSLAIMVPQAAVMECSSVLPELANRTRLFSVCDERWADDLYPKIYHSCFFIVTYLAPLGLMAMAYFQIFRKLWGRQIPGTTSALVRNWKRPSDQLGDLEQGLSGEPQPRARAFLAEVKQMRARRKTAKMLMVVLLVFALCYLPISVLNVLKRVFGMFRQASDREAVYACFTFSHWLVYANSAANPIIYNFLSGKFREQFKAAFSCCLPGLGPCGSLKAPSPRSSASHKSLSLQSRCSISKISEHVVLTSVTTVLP

Row | SMILES | melting point | Ki (human orexin 2 receptors [1]) | Ki (human orexin 1 receptors [2]) | Kd (human orexin 1 receptors [3]) | Kd (human orexin 2 receptors [4]) | Kd (human orexin 1 receptors [5]) | Kd (human orexin 2 receptors [6])
1 | Cn1nc(-c2ccccc2)c2c(C(F)(F)F)cc(OCC(=O)N[C@H]3CCc4ccccc43)nc21 [Example 1.3, (S)—N-(2,3-dihydro-1H-inden-1-yl)-2-(1-methyl-3-phenyl-4-(trifluoromethyl)-1H-pyrazolo[3,4-b]pyridin-6-yloxy)acetamide] | 203 to 205.2 °C | 0.069 µM | 0.211 µM | 0.348 µM | 0.128 µM |  | 
2 | COc1ccc([C@H](C)NC(=O)COc2cc(C(F)(F)F)c3c(-c4ccccc4)nn(C)c3n2)cc1 [Example 1.4, (S)—N-(1-(4-methoxyphenyl)ethyl)-2-(1-methyl-3-phenyl-4-(trifluoromethyl)-1H-pyrazolo[3,4-b]pyridin-6-yloxy)acetamide] | 172 to 174 °C | 0.002 µM | 0.014 µM | 0.008 µM | 0.004 µM | 0.007 µM | 0.003 µM
3 | C[C@H](CNC(=O)COc1cc(C(F)(F)F)c2c(-c3ccccc3)nn(C)c2n1)c1ccccc1 [Example 1.5, (S)-2-(1-methyl-3-phenyl-4-(trifluoromethyl)-1H-pyrazolo[3,4-b]pyridin-6-yloxy)-N-(2-phenylpropyl)acetamide] | 91 to 93 °C | 0.036 µM | 0.87 µM | 1.15 µM | 0.076 µM |  | 
4 | Cc1n[nH]c(C)c1[C@H](C)NC(=O)COc1cc(C(F)(F)F)c2c(-c3ccccc3)nn(C)c2n1 [Example 1.6, (S)—N-(1-(3,5-dimethyl-1H-pyrazol-4-yl)ethyl)-2-(1-methyl-3-phenyl-4-(trifluoromethyl)-1H-pyrazolo[3,4-b]pyridin-6-yloxy)acetamide] | 145 to 147 °C |  |  |  |  |  | 
5 | COc1cccc(C(C)NC(=O)COc2cc(C(F)(F)F)c3c(-c4ccccc4)nn(C)c3n2)c1 (centres unmarked) [Example 1.46, N-(1-(3-methoxyphenyl)ethyl)-2-(1-methyl-3-phenyl-4-(trifluoromethyl)-1H-pyrazolo[3,4-b]pyridin-6-yloxy)acetamide] |  | 0.026 µM | 0.02 µM | 0.042 µM | 0.101 µM |  | 
6 | Cc1ccc(-c2nn(C)c3nc(OCC(=O)N[C@@H](C)c4ccccc4)cc(C(F)(F)F)c23)cc1 [Example 1.48, (S)-2-(1-methyl-3-p-tolyl-4-(trifluoromethyl)-1H-pyrazolo[3,4-b]pyridin-6-yloxy)-N-(1-phenylethyl)acetamide] |  | 0.075 µM | 0.178 µM | 0.49 µM | 0.212 µM |  | 
7 | COc1ccccc1-c1nn(C)c2nc(OCC(=O)N[C@@H](C)c3ccccc3)cc(C(F)(F)F)c12 [Example 1.49, (S)-2-(3-(2-methoxyphenyl)-1-methyl-4-(trifluoromethyl)-1H-pyrazolo[3,4-b]pyridin-6-yloxy)-N-(1-phenylethyl)acetamide] |  | 0.243 µM | 0.015 µM | 0.006 µM | 0.715 µM |  | 
8 | C[C@H](NC(=O)COc1cc(C(F)(F)F)c2c(-c3cccc(Br)c3)nn(C)c2n1)c1ccccc1 [Example 1.58, (S)-2-(3-(3-bromophenyl)-1-methyl-4-(trifluoromethyl)-1H-pyrazolo[3,4-b]pyridin-6-yloxy)-N-(1-phenylethyl)acetamide] |  | 0.201 µM | 0.077 µM | 0.17 µM | 0.436 µM |  | 
9 | Cn1nc(-c2ccccc2F)c2c(C(F)(F)F)cc(OCC(=O)N[C@H]3CCc4ccccc43)nc21 [Example 1.60, (S)-N-(2,3-dihydro-1H-inden-1-yl)-2-(3-(2-fluorophenyl)-1-methyl-4-(trifluoromethyl)-1H-pyrazolo[3,4-b]pyridin-6-yloxy)acetamide] |  | 0.036 µM | 0.236 µM | 0.418 µM | 0.144 µM |  | 
10 | Cn1nc(-c2cccc(F)c2)c2c(C(F)(F)F)cc(OCC(=O)N[C@H]3CCc4ccccc43)nc21 [Example 1.61, (S)-N-(2,3-dihydro-1H-inden-1-yl)-2-(3-(3-fluorophenyl)-1-methyl-4-(trifluoromethyl)-1H-pyrazolo[3,4-b]pyridin-6-yloxy)acetamide] |  | 0.033 µM | 0.117 µM | 0.204 µM | 0.089 µM |  | 
11 | COc1ccc(C(C)NC(=O)COc2cc(C(F)(F)F)c3c(-c4ccccc4)nn(C)c3n2)cn1 (centres unmarked) [Example 1.67, N-(1-(6-methoxypyridin-3-yl)ethyl)-2-(1-methyl-3-phenyl-4-(trifluoromethyl)-1H-pyrazolo[3,4-b]pyridin-6-yloxy)acetamide] |  | 0.002 µM | 0.027 µM | 0.046 µM | 0.02 µM |  | 
12 | Cc1nn(C)c(C)c1C(C)NC(=O)COc1cc(C(F)(F)F)c2c(-c3ccccc3)nn(C)c2n1 (centres unmarked) [Example 1.70, 2-(1-methyl-3-phenyl-4-(trifluoromethyl)-1H-pyrazolo[3,4-b]pyridin-6-yloxy)-N-(1-(1,3,5-trimethyl-1H-pyrazol-4-yl)ethyl)acetamide] |  | 0.01 µM | 0.008 µM | 0.026 µM | 0.05 µM |  | 
13 | COc1ccc([C@H](C)NC(=O)COc2cc(C)c3c(C4CC4)nn(C)c3n2)cc1 [Example 1.71, (S)-2-(3-cyclopropyl-1,4-dimethyl-1H-pyrazolo[3,4-b]pyridin-6-yloxy)-N-(1-(4-methoxyphenyl)ethyl)acetamide] |  | 0.088 µM | 0.145 µM | 0.105 µM | 0.063 µM |  | 
14 | Cc1ccc(C(C)NC(=O)COc2cc(C(F)(F)F)c3c(-c4ccccc4)nn(C)c3n2)cn1 (centres unmarked) [Example 1.77, 2-(1-methyl-3-phenyl-4-(trifluoromethyl)-1H-pyrazolo[3,4-b]pyridin-6-yloxy)-N-(1-(6-methylpyridin-3-yl)ethyl)acetamide] |  | 0.021 µM | 0.074 µM | 0.161 µM | 0.087 µM |  | 
15 | C[C@H](NC(=O)COc1ccc2c(-c3ccccc3)nn(C)c2n1)c1ccccc1 [Example 2.1, (S)-2-(1-methyl-3-phenyl-1H-pyrazolo[3,4-b]pyridin-6-yloxy)-N-(1-phenylethyl)acetamide] | 55 to 56 °C | 0.865 µM | 0.492 µM |  |  |  | 
16 | C[C@H](NC(=O)COc1cc(C(F)(F)F)c2c(-c3ccccc3)cn(C)c2n1)c1ccccc1 [Example 6.77, (S)-2-(1-methyl-3-phenyl-4-(trifluoromethyl)-1H-pyrrolo[2,3-b]pyridin-6-yloxy)-N-(1-phenylethyl)acetamide] |  | 0.059 µM | 0.148 µM | 0.501 µM | 0.24 µM |  | 
